Reference: patent US11754555B2, “Pad for immunochromatographic device and immunochromatographic device, immunochromatographic kit and immunochromatographic detection method using pad” (TANAKA KIKINZOKU KOGYO K.K., priority 2018, dated 2023)

Assays:
[1] = system: inactivated Group A β-hemolytic streptococcus; experiment: Visual evaluation of red line on detection part of immunochromatographic device; details: for Result of Visual Evaluation (After Storage at 50° C. for 24 Hours): device stored at 50° C. for 24 hours, then positive analyte sample 5×10^5 org/mL, 5 minutes; for Result of Visual Evaluation (After 5 Minutes): positive analyte sample 5×10^5 org/mL, 150 μL, member order of FIG. 3, acid content per pad as in Table 1
Procedure: (§1) The immunochromatographic device and the analyte dilution solution produced above were used, and a sample obtained by adding inactivated Group A β-hemolytic streptococcus at 5×10^5 org/mL was used as a positive analyte sample.
The analyte sample in an amount of 150 μL was dropped to the sample droplet receiving part of the device and developed, and a visual evaluation was made after 5 minutes. Any of the following marks was given: “+” (positive) when the red line on the detection part (4) could be visually observed; “++” (strong positive) when the red line could be visually observed clearly; “±” (weak positive) when a light red line could be visually observed; and “−” (negative) when the red line could not be visually observed.
Separately from the above evaluation, the immunochromatographic device produced above were stored at 50° C. for 24 hours, and then the measurement and the visual evaluation were conducted. […]
Immunochromatographic kits were produced and measurement was conducted in the same manners as in Example 1 except that the kind of the acid anhydride in Example 1 was changed to those shown in Table 1.

[2] = Sublimation at 25° C. at 20 Pa (weight change after 12 hours under reduced pressure); assay type: physicochemical; details: 1 g acid, reduced pressure 25° C., weight change within or exceeding 5%
Procedure: Whether the acids used in the Examples and the Comparative Examples sublimate at 25° C. at 20 Pa was examined by the following method. First, 1 g of an acid was measured in a glass vial, and the weight was measured after subjecting the acid to reduced pressure at 25° C. at 20 Pa for 12 hours.

[3] = system: inactivated Group A β-hemolytic streptococcus; experiment: Color intensity of red line on detection part measured with immunochromatoreader
Procedure: as §1
The color intensity of the red line on the detection part (4) five minutes after starting development was measured with an immunochromatoreader (manufactured by Hamamatsu Photonics K.K.). As a result, the color intensity was 83.7 mAbs.
An immunochromatographic kit was produced in the same manner as in Example 1 except that the sample droplet receiving member (1), the acid anhydride containing member (7), the labeling substance retaining member (2), the chromatography medium member (3) having the detection part (4) and the absorption member (5) were pasted to a base material composed of a backing sheet (6) in a manner that the members were linked in this order along the direction of sample development (the order shown in FIG. 1), and the color intensity was measured with an immunochromatoreader (manufactured by Hamamatsu Photonics K.K.). As a result, the color intensity after five minutes was 48.1 mAbs.
An immunochromatographic kit was produced in the same manner as in Example 3 except that “malic acid” was used instead of “bicyclo[2,2,2]oct-7-ene-2,3,5,6-tetracarboxylic dianhydride”, which is the acid anhydride, and the color intensity after five minutes was measured with an immunochromatoreader (manufactured by Hamamatsu Photonics K.K.). As a result, the color intensity was 4.1 mAbs.

[4] = five minutes after starting development, member order of FIG. 3 (acid-containing member downstream of labeling member)

Compound | Result of Visual Evaluation (After Storage at 50° C. for 24 Hours) [1] | Result of Visual Evaluation (After 5 Minutes) [1] | Sublimation at 25° C. at 20 Pa [2] | color intensity of the red line on the detection part (4) ([3]; after five minutes, member order of FIG. 1 (acid anhydride member upstream of labeling member)) [mAbs] | color intensity of the red line on the detection part (4) [3, 4] [mAbs]
O=C(ON1C(=O)CCC1=O)c1ccccc1 [Comparative Example 1, N-(benzoyloxy)succinimide] | − | − |  |  | 
O=C1OC(=O)[C@@H]2CC=CC[C@H]12 [Comparative Example 9, cis-4-cyclohexene-1,2-dicarboxylic anhydride] | − | + | A (“A” indicates that the acid did not sublimate) |  | 
O=C1OC(=O)C2C3C=CC(C12)C1C(=O)OC(=O)C31 (stereo not drawn) [Example 1, bicyclo[2,2,2]oct-7-ene-2,3,5,6-tetracarboxylic dianhydride] | ++ | ++ | A (“A” indicates that the acid did not sublimate) | 48.1 | 83.7
O=c1oc(=O)c2cc3c(=O)oc(=O)c3cc12 [Example 2, pyromellitic anhydride] | ++ | ++ | A (“A” indicates that the acid did not sublimate) |  | 
CC#Cc1ccc2c(c1)C(=O)OC2=O [Example 3, 4-(1-propynyl)phthalic anhydride] | + | + | A (“A” indicates that the acid did not sublimate) |  | 
CC(=O)Nc1cccc2c1C(=O)OC2=O [Example 4, 3-acetamidophthalic anhydride] | + | + | A (“A” indicates that the acid did not sublimate) |  | 
O=C1OC(=O)C2CC3C(=O)OC(=O)C3CC12 (stereo not drawn) [Example 5, 1,2,4,5-cyclohexanetetracarboxylic dianhydride] | ++ | ++ | A (“A” indicates that the acid did not sublimate) |  | 
O=C1CC(C2CC3C(=O)OC(=O)C3c3ccccc32)C(=O)O1 (stereo not drawn) [Example 6, 4-(2,5-dioxotetrahydrofuran-3-yl)-1,2,3,4-tetrahydronaphthalene-1,2-dicarboxylic anhydride] | ++ | ++ | A (“A” indicates that the acid did not sublimate) |  | 
O=C1CCC(=O)O1 [compound 2, succinic anhydride] | − | ++ | B (“B” indicates that the acid sublimated) |  | 
O=C(O)CC(O)C(=O)O (stereo not drawn) [compound 3, malic acid] | − | − |  |  | 4.1
C=C(CC(=O)O)C(=O)O [compound 4, itaconic acid] | − | − |  |  | 
O=C(O)CN(CCO)CCO [compound 5, N,N-bis(2-hydroxyethyl)glycine] | − | − |  |  | 
CCCCCCCC/C=C\CCCCCCCC(=O)O [compound 6, oleic acid] | − | − |  |  | 
N[C@@H](CCC(=O)O)C(=O)O [compound 7, glutamic acid] | − | − |  |  | 
O=C1CC(c2ccccc2)C(=O)O1 (stereo not drawn) [compound 8, phenylsussinic acid anhydride] | − | + | A (“A” indicates that the acid did not sublimate) |  | 
octadecenylsuccinic anhydride [Reference Example 2] | ± | ± | A (“A” indicates that the acid did not sublimate) |  | 
